This is an account of results in ChEMBL document CHEMBL5150076, “Discovery of Novel Orally Bioavailable Triazoles with Potent and Broad-Spectrum Antifungal Activity In Vitro and In Vivo” (J Med Chem, 2022).

≈ marks a conversion by molar mass, not a printed value. Calls of active or inactive are those of the source. No cut-off for these calls is given here.

The subject of series [1] is Candida albicans. Description: Antifungal activity against Candida albicans SC5314 infected in ICR mouse assessed as median survival time at 0.5 mg/kg, po qd infected with fungus for 2 hrs prior to compound addition for 7 days and measured for 20 days. Format: functional. To be noted: time 20 day.
For series [2], the system named is Cryptococcus neoformans. Put plainly: Antifungal activity against Cryptococcus neoformans 32605. Type of series: functional.
Series [3] has as its system Candida parapsilosis. Put plainly: Antifungal activity against Candida parapsilosis 660. Format: functional. To be noted: Lodderomyces parapsilosis.
Series [4] can be described thus: Clearance in Sprague-Dawley rat at 2 mg/kg, iv by LC-MS analysis. To be noted: in vivo.
Series [5] relates to Candida albicans. Put plainly: Antifungal activity against Candida albicans SC5314 infected in ICR mouse assessed as delay in mortality at 0.25 to 0.5 mg/kg, po qd infected with fungus for 2 hrs prior to compound addition for 7 days and measured for 20 days. Format: functional, organism-based. To be noted: dose 0.25-0.5 mg/kg, time 20.0 day.
Series [6] concerns Trichophyton rubrum. Description: Antifungal activity against Trichophyton rubrum cmccftla. Format: functional.
The subject of series [7] is Candida parapsilosis. Put plainly: Antifungal activity against Candida parapsilosis 22019. Format: functional. As to conditions: Lodderomyces parapsilosis.
Series [8] has as its system Cryptococcus neoformans. Put plainly: Antifungal activity against Cryptococcus neoformans H99 incubated for 72 hrs by microbroth dilution method. Format: functional.
Series [9] can be described thus: AUC(0 to infinity) in Sprague-Dawley rat at 2 mg/kg, iv by LC-MS analysis. As to conditions: in vivo. Further details: time infinity, dose 2 mg/kg, route iv. Type of series: ADME, organism-based.
Series [10] deals with Candida albicans. Put plainly: Inhibition of biofilm formation in Candida albicans SC5314 at 0.5 ug/ml relative to control. Format: functional.
In series [11] the test system is Nakaseomyces glabratus. Put plainly: Antifungal activity against Candida glabrata 537. Format: functional.
In series [12] the test system is Aspergillus fumigatus. Description: Antifungal activity against Aspergillus fumigatus 7544 infected in ICR mouse assessed as survival rate at 20 mg/kg, po qd infected with fungus for 2 hrs prior to compound addition for 7 days and measured for 20 days. Format: functional. To be noted: time 20 day.
Series [13] concerns the target T1, Lanosterol 14-alpha demethylase (Candida albicans (strain SC5314 / ATCC MYA-2876) (Yeast), UniProt P10613). Put plainly: Inhibition of CYP51 in Candida albicans SC5314 assessed as ergosterol level at 0.0625 ug/ml measured after 12 hrs by GC-MS analysis (reference value: 72.58%). More on the design: scale not given: the % may be the effect or the level left. To be noted: dose 0.0625 µg/ml.

The test system of series [14] is Candida albicans. Put plainly: Antifungal activity against Candida albicans 162. Format: functional.
Series [15] concerns Candida albicans. Put plainly: Antifungal activity against Candida albicans 20#. Format: functional.
Series [16] has as its system Candida albicans. Put plainly: Antifungal activity against Candida albicans 12#. Type of series: functional.
For series [17], the target named is T1, Lanosterol 14-alpha demethylase. Put plainly: Inhibition of CYP51 in Candida albicans SC5314 assessed as ergosterol level at 0.5 ug/ml measured after 12 hrs by GC-MS analysis (reference value: 72.58%). More on the design: scale not given: the % may be the effect or the level left. To be noted: at 0.5 µg/mL.

T1 sequence (P10613 whole entry): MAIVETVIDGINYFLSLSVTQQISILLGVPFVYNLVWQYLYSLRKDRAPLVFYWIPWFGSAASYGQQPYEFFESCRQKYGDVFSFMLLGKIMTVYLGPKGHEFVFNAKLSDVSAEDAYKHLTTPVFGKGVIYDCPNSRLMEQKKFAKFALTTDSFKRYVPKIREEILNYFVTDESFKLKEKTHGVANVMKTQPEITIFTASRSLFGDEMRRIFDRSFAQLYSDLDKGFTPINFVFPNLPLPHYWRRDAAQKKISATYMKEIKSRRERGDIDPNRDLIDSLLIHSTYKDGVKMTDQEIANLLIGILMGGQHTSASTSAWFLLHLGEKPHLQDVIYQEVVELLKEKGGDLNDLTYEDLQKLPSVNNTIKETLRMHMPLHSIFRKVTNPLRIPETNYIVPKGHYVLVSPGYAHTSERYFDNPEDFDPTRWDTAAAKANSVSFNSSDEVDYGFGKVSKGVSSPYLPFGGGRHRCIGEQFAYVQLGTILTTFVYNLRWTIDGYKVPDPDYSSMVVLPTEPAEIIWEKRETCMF

Take `C[C@@H](c1cn(-c2ccc(Cl)cc2F)nn1)[C@](O)(Cn1cncn1)c1ccc(F)cc1F`: in series [1], the Time stood at 17 days. The MIC in series [2] is 0.0156 µg/mL (≈ 0.0348 µM); in series [3] it was at most 0.0313 µg/mL; in series [6], 0.125 µg/mL (≈ 0.278 µM); in series [7], 0.0625 µg/mL (≈ 0.139 µM); in [8], 0.0313 µg/mL (≈ 0.0697 µM); in series [11] it was 0.0625 µg/mL (≈ 0.139 µM). Besides, the MIC in series [14] was 8 µg/mL (≈ 17.8 µM); in [15] it was at most 0.0313 µg/mL; in series [16] it was 16 µg/mL (≈ 35.6 µM). Also, in series [4], the clearance is 1.99 mL/min/kg. Further, the outcome in series [5] was Active. For the same compound, the AUC(0-inf) in series [9] came to 8410 ng·h/mL. In series [10], this compound returned an inhibition at 0.5 µg/mL of 80%. The values for the Activity in series [12], in [13] and in [17] were 30%, 0.76% and 74.56%, respectively.

For orientation: MIC means the lowest concentration found to suppress growth. Broadly, the clearance is a measure of how efficiently the substance is removed, as volume per time. Broadly, the AUC(0-inf) is the area under the concentration-time curve extrapolated to infinity. What is called inhibition is the drop in the measured response relative to a control, in per cent.
